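Growth conditions: 96-well plates. Treatment: test compound, 48 hours, 5 concentrations. Analysis: linear interpolation between bracketing concentrations; unreached endpoints set to highest concentration. TGI denotes the concentration required for complete inhibition of growth.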 A value given as a limit tells only on which side of the number the result lay.

Test systems include SNB-19 CNS; UO-31 renal; LOX IMVI melanoma; M14 melanoma; 786-0 renal; HCT-116 colon; SF-268 CNS; NCI-H23 lung; IGROV1 ovarian; OVCAR-8 ovarian; SF-539 CNS; SW-620 colon; COLO 205 colon; SK-MEL-5 melanoma; HOP-62 NSCLC; KM12 colon; HL-60(TB) leukemia; HCC-2998 colon.
Common to all, as to experiment: NCI anticancer screen, dose series, 48 h

In the case of `O=C1/C(=C/C=C/c2ccccc2)CCC1CNc1ccccc1` (stereo not drawn), the TGI in the experiment with SNB-19 CNS is more than 89.8 µM; in the experiment with UO-31 renal, more than 100 µM; in the experiment with LOX IMVI melanoma it was 40 µM; in the experiment with M14 melanoma, more than 100 µM; with 786-0 renal, 41.2 µM; with HCT-116 colon it was more than 50 µM. Also, the TGI in the experiment on SF-268 CNS is more than 100 µM; with NCI-H23 lung it was more than 80.9 µM; in the experiment with IGROV1 ovarian, more than 71.8 µM; in the experiment on OVCAR-8 ovarian it was more than 100 µM; in the experiment with SF-539 CNS it was more than 77.5 µM; in the experiment with SW-620 colon, more than 90.4 µM. Further, the TGI in the experiment with COLO 205 colon was more than 94.3 µM; with SK-MEL-5 melanoma, more than 100 µM; with HOP-62 NSCLC it was more than 100 µM; with KM12 colon it was 39.3 µM; with HL-60(TB) leukemia, 16.7 µM; with HCC-2998 colon it was more than 100 µM.
As to `COc1cc(C=O)c(-c2c(C=O)ccc3c2OCO3)c(OC)c1OC`, the TGI in the experiment on SNB-19 CNS, in the experiment on UO-31 renal, with LOX IMVI melanoma, in the experiment with M14 melanoma, in the experiment with 786-0 renal and in the experiment with HCT-116 colon was more than 100 µM each time. Besides, the TGI in the experiment with SF-268 CNS, in the experiment on NCI-H23 lung, in the experiment on IGROV1 ovarian, in the experiment on OVCAR-8 ovarian, in the experiment on SF-539 CNS and in the experiment with SW-620 colon was more than 100 µM in each case. The TGI was more than 100 µM with COLO 205 colon; more than 100 µM in the experiment with SK-MEL-5 melanoma; more than 100 µM in the experiment on HOP-62 NSCLC; more than 100 µM in the experiment on KM12 colon; 81.1 µM in the experiment on HL-60(TB) leukemia; more than 100 µM in the experiment with HCC-2998 colon.
For `Cc1cc(C)c2c(=O)cc(-c3cccc4ccccc34)[nH]c2n1`, the TGI is more than 51.8 µM with SNB-19 CNS; more than 100 µM in the experiment on UO-31 renal; 26.4 µM with LOX IMVI melanoma; more than 51.4 µM in the experiment with M14 melanoma; more than 100 µM in the experiment on 786-0 renal; more than 100 µM in the experiment on HCT-116 colon. Further, the TGI was more than 48 µM in the experiment with SF-268 CNS; more than 61.6 µM with NCI-H23 lung; more than 84.5 µM in the experiment with IGROV1 ovarian; 7.38 µM with OVCAR-8 ovarian; more than 19.9 µM in the experiment on SF-539 CNS; more than 88.8 µM in the experiment with SW-620 colon. The TGI was 2.03 µM in the experiment on COLO 205 colon; 1.74 µM with SK-MEL-5 melanoma; more than 100 µM with HOP-62 NSCLC; 15.4 µM with KM12 colon; 0.734 µM in the experiment with HL-60(TB) leukemia; 7.37 µM in the experiment on HCC-2998 colon.
Take `OCC12C=CC(C1)c1ccccc12` (stereo not drawn): the TGI in the experiment on SNB-19 CNS, in the experiment with UO-31 renal, in the experiment with LOX IMVI melanoma, in the experiment with M14 melanoma, in the experiment with 786-0 renal and in the experiment with HCT-116 colon was more than 100 µM in each case. Further, the TGI with SF-268 CNS, with NCI-H23 lung, with IGROV1 ovarian, in the experiment on OVCAR-8 ovarian, in the experiment with SW-620 colon and with COLO 205 colon was more than 100 µM each time. Besides, the TGI with SK-MEL-5 melanoma, in the experiment on HOP-62 NSCLC, in the experiment on HL-60(TB) leukemia and in the experiment on HCC-2998 colon was more than 100 µM each time.
Consider `CCN1C[C@]2(C)CC[C@H](O)C34C1C(C[C@@H]32)[C@@]1(O)CC[C@H]2C[C@@H]4[C@@H]1[C@H]2O`, for which the TGI in the experiment on SNB-19 CNS, in the experiment on UO-31 renal, in the experiment with LOX IMVI melanoma, in the experiment with M14 melanoma, with 786-0 renal and with HCT-116 colon was more than 100 µM each time. For the same compound, the TGI with SF-268 CNS, in the experiment with NCI-H23 lung, in the experiment on IGROV1 ovarian, with OVCAR-8 ovarian, in the experiment on SF-539 CNS and in the experiment on SW-620 colon was more than 100 µM throughout. Also, the TGI in the experiment on COLO 205 colon, in the experiment with SK-MEL-5 melanoma, in the experiment with HOP-62 NSCLC, with KM12 colon and with HL-60(TB) leukemia was more than 100 µM throughout.
On to `C/C(=N\NS(=O)(=O)c1ccc(C)cc1)c1ccccn1`, for which the TGI in the experiment with SNB-19 CNS, with UO-31 renal, with LOX IMVI melanoma, in the experiment with M14 melanoma, in the experiment on 786-0 renal and with HCT-116 colon was more than 100 µM in each case. Further, the TGI in the experiment with SF-268 CNS, in the experiment on NCI-H23 lung, in the experiment with IGROV1 ovarian, in the experiment on OVCAR-8 ovarian, in the experiment with SF-539 CNS and in the experiment on SW-620 colon was more than 100 µM in each case. Besides, the TGI in the experiment on COLO 205 colon is 93.5 µM; in the experiment with SK-MEL-5 melanoma, more than 100 µM; in the experiment on HOP-62 NSCLC, more than 100 µM; in the experiment on KM12 colon, more than 100 µM; in the experiment on HL-60(TB) leukemia it was 73.3 µM; in the experiment on HCC-2998 colon, more than 100 µM.
As for `O=S(Cc1ccccc1)c1nc2ccccc2nc1-c1cccs1` (stereo not drawn), the TGI with SNB-19 CNS came to 39.4 µM; in the experiment on UO-31 renal, 41 µM; in the experiment on M14 melanoma, 25.4 µM; in the experiment with 786-0 renal, 23.4 µM; in the experiment with HCT-116 colon, 23.3 µM; in the experiment with SF-268 CNS it was 51.4 µM. Besides, the TGI in the experiment on NCI-H23 lung came out at 33.8 µM; with IGROV1 ovarian, 29.2 µM; in the experiment on OVCAR-8 ovarian, 38.8 µM; in the experiment on SF-539 CNS, 30 µM; in the experiment on COLO 205 colon, 42.7 µM; in the experiment on SK-MEL-5 melanoma, 23.7 µM. Also, the TGI was 37.4 µM in the experiment with HOP-62 NSCLC, 34.5 µM with KM12 colon, more than 100 µM with HL-60(TB) leukemia and 26.1 µM in the experiment with HCC-2998 colon.
On to `CCCCCCNCCc1cnc[nH]1`, for which the TGI with SNB-19 CNS, in the experiment with UO-31 renal, in the experiment on LOX IMVI melanoma, in the experiment on M14 melanoma, with 786-0 renal and in the experiment on HCT-116 colon was more than 100 µM throughout. For the same compound, the TGI with SF-268 CNS, in the experiment with NCI-H23 lung, in the experiment with IGROV1 ovarian, with OVCAR-8 ovarian, with SF-539 CNS and in the experiment with SW-620 colon was more than 100 µM each time. The TGI in the experiment on COLO 205 colon, in the experiment on SK-MEL-5 melanoma, in the experiment with HOP-62 NSCLC, in the experiment on KM12 colon and in the experiment with HCC-2998 colon was more than 100 µM throughout.

The values above are taken from PubChem BioAssay (NCI).
